Data on 13 molecules can be found in ChEMBL document CHEMBL2375303, “Molecular determinants for nuclear receptors selectivity: chemometric analysis, dockings and site-directed mutagenesis of dual peroxisome proliferator-activated receptors α/γ agonists” (Eur J Med Chem, 2013).

Format in all cases: cell-based
For experiment [1], the target named is T1, Peroxisome proliferator-activated receptor gamma (Homo sapiens, UniProt P37231).
T1 sequence (P37231 whole entry): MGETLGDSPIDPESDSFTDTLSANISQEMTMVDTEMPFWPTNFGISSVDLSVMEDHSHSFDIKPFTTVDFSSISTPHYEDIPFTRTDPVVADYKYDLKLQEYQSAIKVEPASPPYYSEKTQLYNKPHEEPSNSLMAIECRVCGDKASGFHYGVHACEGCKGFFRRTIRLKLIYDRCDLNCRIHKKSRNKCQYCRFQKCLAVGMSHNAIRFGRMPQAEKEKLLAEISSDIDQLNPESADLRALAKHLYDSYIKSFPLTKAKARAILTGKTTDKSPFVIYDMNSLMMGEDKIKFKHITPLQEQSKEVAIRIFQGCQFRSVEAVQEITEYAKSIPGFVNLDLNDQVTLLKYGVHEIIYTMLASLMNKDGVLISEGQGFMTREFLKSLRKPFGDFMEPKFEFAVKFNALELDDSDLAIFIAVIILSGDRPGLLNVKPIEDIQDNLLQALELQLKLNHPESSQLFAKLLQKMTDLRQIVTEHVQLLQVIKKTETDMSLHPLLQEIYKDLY
The experiment in a line: Agonist activity at GAL4-fused PPARgamma (unknown origin) expressed in human HepG2 cells by transactivation assay.

Experiment [2] addresses T2, Peroxisome proliferator-activated receptor alpha (Homo sapiens, UniProt Q07869).
T2 sequence (Q07869 whole entry): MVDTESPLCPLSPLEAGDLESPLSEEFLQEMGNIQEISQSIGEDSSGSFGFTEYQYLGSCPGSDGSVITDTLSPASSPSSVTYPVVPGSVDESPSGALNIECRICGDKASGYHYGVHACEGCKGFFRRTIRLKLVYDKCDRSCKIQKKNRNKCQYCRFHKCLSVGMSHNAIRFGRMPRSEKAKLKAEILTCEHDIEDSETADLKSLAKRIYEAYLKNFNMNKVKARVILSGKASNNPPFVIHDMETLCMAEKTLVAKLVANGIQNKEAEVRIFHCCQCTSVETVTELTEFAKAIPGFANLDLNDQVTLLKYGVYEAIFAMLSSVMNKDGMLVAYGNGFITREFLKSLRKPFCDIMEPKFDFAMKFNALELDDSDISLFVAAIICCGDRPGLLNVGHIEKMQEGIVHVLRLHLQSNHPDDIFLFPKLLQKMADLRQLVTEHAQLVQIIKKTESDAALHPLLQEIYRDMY
The experiment in a line: Agonist activity at GAL4-fused PPARalpha (unknown origin) expressed in human HepG2 cells by transactivation assay.

The target of experiment [3] is Peroxisome proliferator-activated receptor alpha (Homo sapiens, UniProt Q07869, A454M). Kind of experiment: Agonist activity at GAL4-fused PPARalpha A454M mutant (unknown origin) expressed in human HepG2 cells by transactivation assay.
A short description of experiment [4]: Agonist activity at GAL4-fused PPARgamma M463A mutant (unknown origin) expressed in human HepG2 cells by transactivation assay.

Peroxisome proliferator-activated receptor alpha (Homo sapiens, UniProt Q07869, A454M), sequence (Q07869 whole entry A454M, the tested form may be a part): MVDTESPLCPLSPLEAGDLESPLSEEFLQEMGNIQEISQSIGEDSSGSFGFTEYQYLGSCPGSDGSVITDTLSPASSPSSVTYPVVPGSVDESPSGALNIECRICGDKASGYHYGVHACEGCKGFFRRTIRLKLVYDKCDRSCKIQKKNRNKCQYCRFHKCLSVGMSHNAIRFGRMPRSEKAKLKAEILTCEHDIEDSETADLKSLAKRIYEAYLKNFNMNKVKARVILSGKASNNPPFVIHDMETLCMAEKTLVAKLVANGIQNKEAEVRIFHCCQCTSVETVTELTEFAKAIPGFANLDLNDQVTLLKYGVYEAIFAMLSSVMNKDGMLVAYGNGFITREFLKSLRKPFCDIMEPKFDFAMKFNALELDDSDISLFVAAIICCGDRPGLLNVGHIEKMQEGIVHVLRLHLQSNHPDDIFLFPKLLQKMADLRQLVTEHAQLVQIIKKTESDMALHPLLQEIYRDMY

On to `O=C(O)[C@H](CCc1ccccc1)Oc1ccc(Cl)cc1`, for which the EC50 in experiment [1] (read-out: pEC50 (converted)) is 7080 nM; in experiment [2] (read-out: pEC50 (converted)) it was 2400 nM.
In the same order, the values of `O=C(O)[C@H](CCCc1ccccc1)Oc1ccc(Cl)cc1` are 912 nM and 589 nM.
The like results for `O=C(O)[C@H](CCCc1ccc(Cl)cc1)Oc1ccc(Cl)cc1` were, in that order, 316 nM and 631 nM.
In the same order, the values of `O=C(O)[C@H](COc1ccccc1)Oc1ccc(Cl)cc1` are 1660 nM and 2510 nM.
For `O=C(O)[C@H](CCOc1ccccc1)Oc1ccc(Cl)cc1`, the EC50 in experiment [1] (read-out: pEC50 (converted)) was 1260 nM; in experiment [2] (read-out: pEC50 (converted)), 3020 nM.
`O=C(O)[C@H](Cc1ccccc1)Oc1ccc(Oc2ccccc2)cc1`: the results for the EC50 in experiment [1] (read-out: pEC50 (converted)) and in experiment [2] (read-out: pEC50 (converted)) were 1580 nM and 891 nM, respectively.
In the same order, the values of `O=C(O)[C@H](Cc1ccccc1)Oc1ccc(-c2ccc(Cl)cc2)cc1` are 8910 nM and 3890 nM.
The like results for `O=C(O)[C@H](Cc1ccc(C(F)(F)F)cc1)Oc1ccc(Cl)cc1` were, in that order, 417 nM and 3630 nM.
For `O=C(O)[C@H](Cc1ccc(Oc2ccccc2)cc1)Oc1ccc(Cl)cc1`, the EC50 in experiment [3] is 900 nM; in experiment [1] (read-out: EC50), 320 nM; in experiment [1] (read-out: pEC50 (converted)), 26.9 nM; in experiment [2] (read-out: EC50), 3900 nM; in experiment [2] (read-out: pEC50 (converted)), 871 nM; in experiment [4], 340 nM.
With `O=C(O)[C@H](Cc1ccc(-c2ccccc2)cc1)Oc1ccc(Cl)cc1`, the EC50 in experiment [1] (read-out: pEC50 (converted)) was 49 nM; in experiment [2] (read-out: pEC50 (converted)), 1120 nM.
In the same order, the values of `O=C(O)[C@H](Cc1ccc(-c2cccs2)cc1)Oc1ccc(Cl)cc1` are 64.6 nM and 589 nM.
With `O=C(O)[C@H](Cc1ccccc1)Oc1ccc(Cc2ccccc2)cc1`, the EC50 amounted to 400 nM in experiment [3], 600 nM in experiment [1] (read-out: EC50), 40 nM in experiment [2] (read-out: EC50) and 470 nM in experiment [4].
As for `CN(CCOc1ccc(CC2SC(=O)NC2=O)cc1)c1ccccn1` (stereo unspecified) [ROSIGLITAZONE], the EC50 in experiment [4] was found to be 2 nM.
